# Test results published in US8377851B2, “Method of altering the alkaloid composition in poppy plants” (priority 2004, dated 2013).
# Read-outs that look alike come from different tables or passages of the source.
# Assays:
# morphine crop [1] = system: morphine crop; parameters: species or system Papaver somniferum; conditions: in vivo
# morphine crop [2] = system: morphine crop; parameters: species or system Papaver somniferum; conditions: in vivo; remark: listed apart in the source
# morphine crop [3] = test: Example 29 field trial: methyl jasmonate, capsule/seed ratio and alkaloid assay
smiles,measurement,setting,value
O=C(O)CN(CCN(CC(=O)O)CC(=O)O)CC(=O)O [EDTA],CAPSULE/SEED RATIO,morphine crop [1],0.590 c
same,CODEINE kg/ha,morphine crop [1],0.790 b kg/ha
same,MORPHINE kg/ha,morphine crop [1],32.97 a kg/ha
same,ORIPAVINE kg/ha,morphine crop [1],0.618 c kg/ha
same,SEED kg/ha,morphine crop [1],1960 a kg/ha
same,STRAW CODEINE %,morphine crop [1],0.047 b %
same,STRAW MORPHINE %,morphine crop [1],1.98 a %
same,STRAW O'PAVINE %,morphine crop [1],0.036 b %
same,STRAW THEBAINE %,morphine crop [1],0.139 c %
same,STRAW kg/ha,morphine crop [1],1668 b kg/ha
same,THEBAINE kg/ha,morphine crop [1],2.350 c kg/ha
same,YIELD t/ha,morphine crop [1],3.63 ab t/ha
"CC/C=C\CC1C(=O)CCC1CC(=O)OC (centres unmarked) [METHYL JASMONATE, methyl jasmonate]",CAPSULE/SEED RATIO,morphine crop [2],0.685 c
same,CODEINE kg/ha,morphine crop [2],1.104 a kg/ha
same,MORPHINE kg/ha,morphine crop [2],19.99 b kg/ha
same,ORIPAVINE kg/ha,morphine crop [2],7.853 c kg/ha
same,SEED kg/ha,morphine crop [2],1886 bc kg/ha
same,STRAW CODEINE %,morphine crop [2],0.059 a %
same,STRAW MORPHINE %,morphine crop [2],1.07 b %
same,STRAW O'PAVINE %,morphine crop [2],0.422 b %
same,STRAW THEBAINE %,morphine crop [2],1.028 c %
same,STRAW kg/ha,morphine crop [2],1863 b kg/ha
same,THEBAINE kg/ha,morphine crop [2],19.124 c kg/ha
same,YIELD kg/ha,morphine crop [2],3.75 a kg/ha
same,CAPSULE/SEED RATIO,morphine crop [3]; METHYL JAS .15 L/ha at EF,0.575 a
same,STRAW CODEINE,morphine crop [3]; METHYL JAS .15 L/ha at EF,0.064 b %
same,STRAW MORPHINE,morphine crop [3]; METHYL JAS .15 L/ha at EF,2.04 a %
same,STRAW O'PAVINE,morphine crop [3]; METHYL JAS .15 L/ha at EF,0.009 b %
same,STRAW THEBAINE,morphine crop [3]; METHYL JAS .15 L/ha at EF,0.042 b %
same,CAPSULE/SEED RATIO,morphine crop [3]; METHYL JAS .15 L/ha at GCAPS,0.577 a
same,STRAW CODEINE,morphine crop [3]; METHYL JAS .15 L/ha at GCAPS,0.044 c %
same,STRAW MORPHINE,morphine crop [3]; METHYL JAS .15 L/ha at GCAPS,2.01 a %
same,STRAW O'PAVINE,morphine crop [3]; METHYL JAS .15 L/ha at GCAPS,0.005 c %
same,STRAW THEBAINE,morphine crop [3]; METHYL JAS .15 L/ha at GCAPS,0.033 c %
same,CAPSULE/SEED RATIO,morphine crop [3]; METHYL JAS .3 L/ha at EF,0.581 a
same,STRAW CODEINE,morphine crop [3]; METHYL JAS .3 L/ha at EF,0.075 a %
same,STRAW MORPHINE,morphine crop [3]; METHYL JAS .3 L/ha at EF,2.09 a %
same,STRAW O'PAVINE,morphine crop [3]; METHYL JAS .3 L/ha at EF,0.011 a %
same,STRAW THEBAINE,morphine crop [3]; METHYL JAS .3 L/ha at EF,0.051 a %
same,CAPSULE/SEED RATIO,morphine crop [3]; METHYL JAS .3 L/ha at GCAPS,0.577 a
same,STRAW CODEINE,morphine crop [3]; METHYL JAS .3 L/ha at GCAPS,0.042 c %
same,STRAW MORPHINE,morphine crop [3]; METHYL JAS .3 L/ha at GCAPS,2.04 a %
same,STRAW O'PAVINE,morphine crop [3]; METHYL JAS .3 L/ha at GCAPS,0.004 c %
same,STRAW THEBAINE,morphine crop [3]; METHYL JAS .3 L/ha at GCAPS,0.029 c %
